Assay results taken from the Kinase Knowledgebase extract (Sharma et al. 2016).

Molecular target: PIK3CA (human) (UniProt P42336)
Experiment: Assessment of PIK3CA Kinase Activity

Chain of PIK3CA (human) (P42336 whole entry, looked up): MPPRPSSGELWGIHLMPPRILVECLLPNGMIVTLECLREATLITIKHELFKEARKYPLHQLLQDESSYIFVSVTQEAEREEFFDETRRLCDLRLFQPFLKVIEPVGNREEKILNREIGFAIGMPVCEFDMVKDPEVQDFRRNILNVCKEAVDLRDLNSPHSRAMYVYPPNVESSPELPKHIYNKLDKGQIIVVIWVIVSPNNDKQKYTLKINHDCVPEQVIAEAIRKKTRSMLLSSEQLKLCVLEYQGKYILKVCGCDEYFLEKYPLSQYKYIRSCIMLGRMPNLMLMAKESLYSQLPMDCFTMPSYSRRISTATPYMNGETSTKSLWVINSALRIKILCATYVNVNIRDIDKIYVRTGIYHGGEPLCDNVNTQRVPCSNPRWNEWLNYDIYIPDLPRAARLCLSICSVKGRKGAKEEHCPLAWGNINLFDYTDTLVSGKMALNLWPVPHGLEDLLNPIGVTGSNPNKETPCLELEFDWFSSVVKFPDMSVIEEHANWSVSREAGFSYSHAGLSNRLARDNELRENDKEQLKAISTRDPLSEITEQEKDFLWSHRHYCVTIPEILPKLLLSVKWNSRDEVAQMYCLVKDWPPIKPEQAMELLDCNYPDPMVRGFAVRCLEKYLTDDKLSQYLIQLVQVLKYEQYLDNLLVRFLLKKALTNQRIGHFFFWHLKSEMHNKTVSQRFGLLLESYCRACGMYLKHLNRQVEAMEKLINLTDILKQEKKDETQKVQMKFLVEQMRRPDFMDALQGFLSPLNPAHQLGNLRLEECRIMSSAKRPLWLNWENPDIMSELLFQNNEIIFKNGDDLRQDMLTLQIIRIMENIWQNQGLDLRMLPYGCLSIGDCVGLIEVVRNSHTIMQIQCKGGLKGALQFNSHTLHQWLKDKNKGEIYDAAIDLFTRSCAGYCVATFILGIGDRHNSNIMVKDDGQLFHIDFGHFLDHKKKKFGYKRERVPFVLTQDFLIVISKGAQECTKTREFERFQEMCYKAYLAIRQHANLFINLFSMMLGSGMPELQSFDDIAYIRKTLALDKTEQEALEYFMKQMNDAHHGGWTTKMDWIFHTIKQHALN

SMILES	IC50
CNc1nc(-c2cn3c(n2)-c2ccccc2OCC3)n(C(C)C)n1	< 1000 nM
CC(C)n1ncnc1-c1cn2c(n1)-c1ccc(-c3cncn3CCO)cc1OCC2	< 1000 nM
CC(C)n1ncnc1-c1cn2c(n1)-c1cnc(N3CCCC3)cc1OCC2	< 1000 nM
CC(C)(CO)NC(=O)c1ccc2c(c1)-c1nc(-c3ncnn3-c3ccc(F)cc3F)cn1CCO2	< 1000 nM
Cc1nc(-c2cn3c(n2)-c2ccccc2OCC3)n(C(C)C)n1	< 1000 nM
CC(C)n1ncnc1-c1cn2c(n1)-c1ccc(C3CCOCC3)cc1OCC2	< 1000 nM
Cc1nc(-c2cn3c(n2)-c2ccc(-c4cnn(CCN5CCOCC5)c4)cc2OCC3)n(C(C)C)n1	< 1000 nM
CC(C)n1ncnc1-c1cn2c(n1)-c1cnc(N3CC=C[C@H]3C(N)=O)cc1OCC2	< 1000 nM
CC(C)n1ncnc1-c1cn2c(n1)-c1cnc(N[C@H](C)C(N)=O)cc1OCC2	< 1000 nM
CC(C)n1ncnc1-c1cn2c(n1)-c1ccc(O)cc1OCC2	< 1000 nM
COCc1nc(-c2cn3c(n2)-c2ccccc2OCC3)n(C(C)C)n1	< 1000 nM
CNC(=O)c1ccc2c(c1)OCCn1cc(-c3ncnn3CC(F)(F)F)nc1-2	< 1000 nM
CC(C)n1ncnc1-c1cn2c(n1)-c1ccc(C3CN(S(=O)(=O)CCN4CC(F)C4)C3)cc1OCC2	< 1000 nM
CC(C)n1ncnc1-c1cn2c(n1)-c1ccc(NCC(N)=O)cc1OCC2	< 1000 nM
CC(C)(O)CN1CCC(c2ccc3c(c2)-c2nn(-c4ncnn4-c4ccc(F)cc4F)cc2CCO3)CC1	< 1000 nM
CC(C)n1nccc1-c1cn2c(n1)-c1ccc(C(N)=O)cc1OCC2	< 1000 nM
NC(=O)C1CC1c1ccc2c(c1)OCCn1cc(-c3ncnn3CC(F)(F)F)nc1-2 (stereo not drawn)	< 1000 nM
CC(C)n1ncnc1-c1cn2c(n1)-c1ccc(N3CCC[C@H]3C(N)=O)cc1OCC2	< 1000 nM
CC(C)n1ncnc1-c1cn2c(n1)-c1ccc(-c3cncn3C3CCCCO3)cc1OCC2 (stereo not drawn)	< 1000 nM
Cc1nc(-c2cn3c(n2)-c2cnc(N4C[C@H](O)C[C@H]4C(N)=O)cc2OCC3)n(C(C)C)n1	< 1000 nM
CC(C)n1ncnc1-c1cn2c(n1)-c1ccc(-c3ccc(Cl)cc3)cc1OCC2	< 1000 nM
CC(C)n1ncnc1-c1cn2c(n1)-c1cnc(N3CCNC(=O)C3)cc1OCC2	< 1000 nM
CC(C)n1ncnc1-c1cc2n(n1)-c1cc(C(=O)N3CCC(O)CC3)ccc1OCC2	< 1000 nM

SMILES	IC50
CC(C)n1nccc1-c1cn2c(n1)CCOc1cc(C(N)=O)cnc1-2	< 1000 nM
CC(C)n1ncnc1-c1cc2n(n1)-c1cc(C3CN(S(C)(=O)=O)C3)ccc1OCC2	< 1000 nM
CC(C)n1nc(N)nc1-c1cn2c(n1)-c1cc(F)ccc1OCC2	< 1000 nM
Cc1nc(-c2cn3c(n2)-c2ccc(-c4cn(CC(C)(C)O)cn4)cc2OCC3)n(C(C)C)n1	< 1000 nM
CC(C)n1ncnc1-c1cn2c(n1)-c1cnc(N)cc1OCC2	< 1000 nM
CC(C)n1nc(N)nc1-c1cn2c(n1)-c1cc(F)c(F)cc1OCC2	< 1000 nM
CC(C)n1ncnc1-n1cc2c(n1)-c1cc(C(=O)NCCO)ccc1OCC2	< 1000 nM
CC(C)n1ncnc1-c1cn2c(n1)-c1cnc(NCc3ccn[nH]3)cc1OCC2	< 1000 nM
Cc1cn(C(C)C)c(-c2cn3c(n2)-c2ccc(-c4cnn(CC(C)(C)O)c4)cc2OCC3)n1	< 1000 nM
Cc1nc(-c2cn3c(n2)-c2ccc(CC(N)=O)cc2OCC3)n(C(C)C)n1	< 1000 nM
CC(C)n1ncnc1-c1cn2c(n1)-c1cnc(O[C@@H](C)C(N)=O)cc1OCC2	< 1000 nM
CC(C)n1ncnc1-c1cn2c(n1)-c1ccc(C(=O)NO)cc1OCC2	< 1000 nM
Cc1nc(-c2cn3c(n2)-c2ccc(OC4CC4)cc2OCC3)n(C(C)C)n1	< 1000 nM
CC(C)n1ncnc1-c1cn2c(n1)-c1cc(NC3CNC3)ncc1OCC2	< 1000 nM
CC(C)n1nc(CC(N)=O)nc1-c1cn2c(n1)-c1ccc(Br)cc1OCC2	< 1000 nM
CC(C)n1ncnc1-c1cc2n(n1)-c1cc(C(=O)N3CCS(=O)(=O)CC3)ccc1OCC2	< 1000 nM
CC(C)n1nccc1-c1cn2c(n1)-c1ccc(CN)cc1OCC2	< 1000 nM
Clc1ccccc1-n1ncnc1-c1cn2c(n1)-c1cc(-c3cncnc3)ccc1OCC2	< 1000 nM
Cc1ncc(-c2ccc3c(c2)OCCn2cc(-c4ncnn4C(C)C)nc2-3)[nH]1	< 1000 nM
CC(Cc1ccc2c(c1)OCCn1cc(-c3ncnn3C(C)C)nc1-2)C(N)=O (stereo not drawn)	< 1000 nM
Cc1nc(-c2cn3c(n2)-c2cnc(NCC(N)=O)cc2OCC3)n(CC(F)(F)F)n1	< 1000 nM
CC(Sc1ccc2c(c1)OCCn1cc(-c3ncnn3C(C)C)nc1-2)C(N)=O (stereo not drawn)	< 1000 nM
COc1ccc2c(c1)OCCn1cc(-c3ncnn3C(C)C)nc1-2	< 1000 nM

Results, then the compound that gave them:

IC50	SMILES
< 1000 nM	CC(C)n1ccnc1-c1cn2c(n1)-c1cnccc1OCC2
< 1000 nM	CC(C)n1ncnc1-c1cn2c(n1)-c1cnc(NCC(O)c3nccn3C)cc1OCC2 (stereo not drawn)
< 1000 nM	COC(=O)c1ccc2c(c1)OCCn1cc(-c3ncnn3C(C)C)nc1-2
< 1000 nM	CC(C)n1ncnc1-c1cn2c(n1)-c1ccc(N3CC(F)(F)C[C@H]3C(N)=O)cc1OCC2
< 1000 nM	CC(C)n1ncnc1-c1cn2c(n1)-c1cnc(O[C@H](C)C(N)=O)cc1OCC2
< 1000 nM	Cc1nc(-c2cn3c(n2)-c2ccc(C4COC4)cc2OCC3)n(C(C)C)n1
< 1000 nM	CS(=O)(=O)CCN1CCC(c2ccc3c(c2)-c2nn(-c4ncnn4-c4ccc(F)cc4F)cc2CCO3)CC1
< 1000 nM	CC(C)n1ncnc1-c1cn2c(n1)-c1ccc(-c3cnn(C(C)(C)C(=O)O)c3)cc1OCC2
< 1000 nM	CC(C)n1ncnc1-c1cn2c(n1)-c1ccc(-c3cn[nH]c3)cc1OCC2
< 1000 nM	CC(C)n1ncnc1-c1cn2c(n1)-c1ccc(C3CCN(CC(=O)N(C)C)CC3O)cc1OCC2 (stereo not drawn)
< 1000 nM	COc1ccc(CNc2cc3c(cn2)-c2nc(-c4ncnn4CC(F)(F)F)cn2CCO3)cc1OC
< 1000 nM	O=C(c1ccc2c(c1)-c1nc(-c3ncnn3CC(F)(F)F)cn1CCO2)N1CCC(O)CC1
< 1000 nM	CC(C)n1nc(N)nc1-c1cn2c(n1)-c1ccc(C3CC3)cc1OCC2
< 1000 nM	CC(C)n1ncnc1-c1cn2c(n1)-c1ccc(Br)cc1OCC2
< 1000 nM	CC(C)n1ncnc1-c1cn2c(n1)-c1ccc(C3CCN(CC(C)(C)O)CC3)cc1OCC2
< 1000 nM	Cc1nc(-c2cn3c(n2)-c2cc(-c4cc[nH]c(=O)c4)ccc2OCC3)n(C(C)C)n1
< 1000 nM	CNC(=O)C(C)(C)N1CCC(c2ccc3c(c2)OCCn2cc(-c4ncnn4C(C)C)nc2-3)C(O)C1 (stereo not drawn)
< 1000 nM	CC(C)n1ncnc1-c1cn2c(n1)-c1cc(C(N)=O)ccc1OCC2
< 1000 nM	CS(=O)(=O)CCN1CCC(c2ccc3c(c2)-n2nc(-c4ncnn4CC(F)(F)F)cc2CCO3)CC1
< 1000 nM	CC(C)n1ncnc1-c1cn2c(n1)-c1ccc(C3CCN(CC(=O)NC(C)(C)C)CC3)cc1OCC2
< 1000 nM	Cc1nc(-c2cn3c(n2)-c2ccc(C4CCN(CC(N)=O)CC4)cc2OCC3)n(C(C)C)n1
< 1000 nM	Nc1nc(-c2cn3c(n2)-c2cc(-c4ccccc4)ccc2OCC3)n(-c2ccccc2Cl)n1
< 1000 nM	Cc1nc(-c2cn3c(n2)-c2cnc(N4C[C@@H](O)C[C@H]4C(N)=O)cc2OCC3)n(C(C)C)n1
< 1000 nM	CC(C)n1ncnc1-c1cn2c(n1)-c1cc(-c3ccc(Cl)cc3)ccc1OCC2
< 1000 nM	Cc1nc(-c2cn3c(n2)-c2ccc(C4CCN(C(C)(C)CO)CC4)cc2OCC3)n(C(C)C)n1
< 1000 nM	Cc1nc(-c2cn3c(n2)-c2ccc(-c4cnn(CC(C)(C)O)c4)cc2OCC3)n(C(C)C)n1

IC50	SMILES
< 1000 nM	CC(C)n1ncnc1-n1cc2c(n1)-c1cc(C(=O)Nc3cnn(CCO)c3)ccc1OCC2
< 1000 nM	Cc1nc(-c2cn3c(n2)-c2ccc(-c4cncc(F)c4)cc2OCC3)n(C(C)C)n1
< 1000 nM	CNC(=O)CN1CCN(c2ccc3c(n2)OCCn2cc(-c4ncnn4C(C)C)nc2-3)CC1
< 1000 nM	CC(C)n1ncnc1-c1cn2c(n1)-c1ccc(C3CCN(CC(F)(F)F)CC3)cc1OCC2
< 1000 nM	CC(C)n1ncnc1-c1cn2c(n1)-c1ccc(OC3CCC3)cc1OCC2
< 1000 nM	CC(C)n1ncnc1-c1cn2c(n1)-c1ccc(-c3ccc(N)nc3)cc1OCC2
< 1000 nM	NC(=O)[C@@H]1CCCCN1c1ccc2c(c1)OCCn1cc(-c3ncnn3CC(F)(F)F)nc1-2
< 1000 nM	Cc1nc(-c2cn3c(n2)-c2cnc(N4C[C@H](F)C[C@H]4C(N)=O)cc2OCC3)n(C(C)C)n1
< 1000 nM	CC(C)n1ncnc1-c1cn2c(n1)-c1cc(C(=O)N3CCC(C(C)(C)O)CC3)ccc1OCC2
< 1000 nM	Cc1nc(-c2cn3c(n2)-c2ccc(CCC(N)=O)cc2OCC3)n(C(C)C)n1
< 1000 nM	CS(=O)(=O)c1ccccc1CNc1cc2c(cn1)-c1nc(-c3ncnn3-c3ccc(F)cc3F)cn1CCO2
< 1000 nM	NC(=O)[C@@H]1CNCCN1c1ccc2c(c1)OCCn1cc(-c3ncnn3CC(F)(F)F)nc1-2
< 1000 nM	CC(C)n1nc(N)nc1-c1cn2c(n1)-c1cc(-c3ccc(Cl)cc3)ccc1OCC2
< 1000 nM	CC(C)n1ncnc1-c1cn2c(n1)-c1cnc(N3C[C@H](C#N)C[C@H]3C(N)=O)cc1OCC2
< 1000 nM	CC(C)n1ncnc1-c1cn2c(n1)-c1ccc(N3CC(N)(CO)C3)cc1OCC2
< 1000 nM	O=c1[nH]cccc1-c1ccc2c(c1)-c1nc(-c3ncnn3CC(F)(F)F)cn1CCO2
< 1000 nM	CNC(=O)c1ccc2c(c1)OCCn1cc(-c3ncnn3-c3ccccc3Cl)nc1-2
< 1000 nM	Cc1nc(-c2cn3c(n2)-c2ccc([C@@H]4CCCN4C(N)=O)cc2OCC3)n(C(C)C)n1
< 1000 nM	Cc1nc(-c2cn3c(n2)-c2ccc(C4CC4)cc2OCC3)n(C(C)CO)n1 (stereo not drawn)
< 1000 nM	Cc1n[nH]c(-c2cn3c(n2)-c2ccc(-c4cnn(CCO)c4)cc2OCC3)n1
< 1000 nM	CC(C)n1ncnc1-c1cn2c(n1)-c1ccc(N3CCN(CC(=O)N(C)C)CC3)nc1OCC2
< 1000 nM	CC(C)n1ncnc1-c1cn2c(n1)-c1ccc(C3CCN(CCS(=O)(=O)N(C)C)CC3)cc1OCC2
< 1000 nM	CC(C)n1ncnc1-c1cn2c(n1)-c1ccc(C3CCN(CCS(C)(=O)=O)CC3)cc1OCC2
< 1000 nM	CC(C)n1ncnc1-c1cc2n(n1)-c1cc(C(=O)Nc3cnn(CCO)c3)ccc1OCC2
< 1000 nM	CC(C)n1ncnc1-n1cc2c(n1)-c1cc(C(=O)N3CCNCC3)ccc1OCC2
< 1000 nM	Cc1nc(-c2cn3c(n2)-c2ccc(-c4cnn(CC(C)C(N)=O)c4)cc2OCC3)n(C(C)C)n1 (stereo not drawn)
